Data on nine compounds can be found in ChEMBL document CHEMBL1137148, “Synthesis, activity, metabolic stability, and pharmacokinetics of glucocorticoid receptor modulator-statin hybrids” (Bioorg Med Chem Lett, 2004).

Molecules are shown by their SMILES. A value given as a limit tells only on which side of the number the result lay.

Assay [1] addresses T1, Glucocorticoid receptor (Rattus norvegicus, UniProt P06536).
T1 sequence (P06536 whole entry): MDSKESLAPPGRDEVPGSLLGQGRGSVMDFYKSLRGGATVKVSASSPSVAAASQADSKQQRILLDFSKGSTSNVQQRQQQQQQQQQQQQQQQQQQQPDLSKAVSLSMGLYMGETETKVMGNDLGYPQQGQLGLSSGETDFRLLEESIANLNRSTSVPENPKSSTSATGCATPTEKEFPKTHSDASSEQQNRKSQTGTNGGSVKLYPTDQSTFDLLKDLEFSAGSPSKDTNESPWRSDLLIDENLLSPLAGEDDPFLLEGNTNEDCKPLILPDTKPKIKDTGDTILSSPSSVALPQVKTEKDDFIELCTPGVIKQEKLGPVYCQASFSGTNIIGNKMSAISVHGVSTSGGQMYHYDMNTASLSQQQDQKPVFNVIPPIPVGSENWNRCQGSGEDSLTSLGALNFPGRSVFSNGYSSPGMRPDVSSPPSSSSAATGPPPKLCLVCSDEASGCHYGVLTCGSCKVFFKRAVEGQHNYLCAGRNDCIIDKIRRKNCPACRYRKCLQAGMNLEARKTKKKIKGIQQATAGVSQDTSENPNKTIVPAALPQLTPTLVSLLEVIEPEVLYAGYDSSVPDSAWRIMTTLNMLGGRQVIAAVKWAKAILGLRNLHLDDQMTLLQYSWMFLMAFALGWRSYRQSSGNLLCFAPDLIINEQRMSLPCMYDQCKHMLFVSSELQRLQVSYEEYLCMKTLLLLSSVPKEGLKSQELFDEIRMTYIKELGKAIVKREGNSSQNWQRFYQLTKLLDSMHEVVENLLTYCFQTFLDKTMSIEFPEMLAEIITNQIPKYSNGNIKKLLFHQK
Briefly: Inhibition of dexamethasone-induced glucocorticoid receptor mediated tyrosine aminotransferase in rat hepatocytes. Type of assay: functional, cell-based, Hepatocyte.

Assay [2] concerns the target T2, Glucocorticoid receptor (Homo sapiens, UniProt P04150).
T2 sequence (P04150 whole entry): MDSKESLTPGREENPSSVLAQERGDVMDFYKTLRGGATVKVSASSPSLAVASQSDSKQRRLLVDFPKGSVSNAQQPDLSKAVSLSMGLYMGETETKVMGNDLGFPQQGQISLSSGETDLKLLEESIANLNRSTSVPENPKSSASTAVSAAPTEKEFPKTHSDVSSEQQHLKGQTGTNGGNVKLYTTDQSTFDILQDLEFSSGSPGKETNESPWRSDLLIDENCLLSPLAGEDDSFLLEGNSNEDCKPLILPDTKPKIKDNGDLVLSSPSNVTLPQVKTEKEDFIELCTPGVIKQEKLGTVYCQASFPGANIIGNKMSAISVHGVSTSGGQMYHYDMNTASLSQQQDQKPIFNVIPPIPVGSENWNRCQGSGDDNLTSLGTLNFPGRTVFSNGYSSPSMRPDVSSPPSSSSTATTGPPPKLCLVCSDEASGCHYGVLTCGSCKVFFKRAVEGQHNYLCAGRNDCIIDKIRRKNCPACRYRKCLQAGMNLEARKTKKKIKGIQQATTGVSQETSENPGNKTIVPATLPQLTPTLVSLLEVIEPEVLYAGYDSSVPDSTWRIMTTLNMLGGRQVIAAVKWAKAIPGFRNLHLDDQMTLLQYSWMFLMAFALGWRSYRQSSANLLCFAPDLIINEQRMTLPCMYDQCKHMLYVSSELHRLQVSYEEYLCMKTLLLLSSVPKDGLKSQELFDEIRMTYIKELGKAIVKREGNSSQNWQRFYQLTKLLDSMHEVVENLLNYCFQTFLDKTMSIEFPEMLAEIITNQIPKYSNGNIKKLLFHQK
Briefly: Inhibition of dexamethasone-induced glucocorticoid receptor mediated alkaline phosphatase activity. Format: functional.

In assay [3] the target is T2, Glucocorticoid receptor.
The target in the next assay is T3, Progesterone receptor (Homo sapiens, UniProt P06401).
T3 sequence (P06401 whole entry): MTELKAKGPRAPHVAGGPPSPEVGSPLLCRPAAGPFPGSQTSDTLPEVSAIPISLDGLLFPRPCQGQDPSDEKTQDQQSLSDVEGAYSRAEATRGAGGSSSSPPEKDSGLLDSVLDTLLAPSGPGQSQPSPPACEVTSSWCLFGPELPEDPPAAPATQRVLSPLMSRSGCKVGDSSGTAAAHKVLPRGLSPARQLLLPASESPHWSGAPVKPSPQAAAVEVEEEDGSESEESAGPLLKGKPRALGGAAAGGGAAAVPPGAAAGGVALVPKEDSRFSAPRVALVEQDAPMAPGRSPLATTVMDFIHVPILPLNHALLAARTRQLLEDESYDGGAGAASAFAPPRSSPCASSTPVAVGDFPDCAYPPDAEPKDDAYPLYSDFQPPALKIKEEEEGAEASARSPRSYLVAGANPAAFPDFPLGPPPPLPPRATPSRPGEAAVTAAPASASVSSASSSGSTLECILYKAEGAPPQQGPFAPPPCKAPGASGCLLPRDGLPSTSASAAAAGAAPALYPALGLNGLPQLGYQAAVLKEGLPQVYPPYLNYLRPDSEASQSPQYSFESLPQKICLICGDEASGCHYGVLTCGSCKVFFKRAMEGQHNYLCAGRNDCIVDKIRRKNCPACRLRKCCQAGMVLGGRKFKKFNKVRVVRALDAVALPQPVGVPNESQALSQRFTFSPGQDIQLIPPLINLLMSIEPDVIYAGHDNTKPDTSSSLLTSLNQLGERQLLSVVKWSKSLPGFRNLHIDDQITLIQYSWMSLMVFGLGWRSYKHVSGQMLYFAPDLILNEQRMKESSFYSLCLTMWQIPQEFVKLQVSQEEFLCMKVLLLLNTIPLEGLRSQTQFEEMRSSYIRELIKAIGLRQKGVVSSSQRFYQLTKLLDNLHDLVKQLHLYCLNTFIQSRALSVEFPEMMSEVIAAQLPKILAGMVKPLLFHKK
The experiment in a line: Inhibition of human progesterone receptor.

Compound `Cc1c(NS(C)(=O)=O)cccc1N(Cc1ccc(Oc2ccccc2)cc1)Cc1ccc(F)cc1F` registered a 50% inhibitory concentration (IC50) on Glucocorticoid receptor [1] greater than 30 µM.

Regarding `Cc1c(NS(C)(=O)=O)cccc1N(Cc1ccccc1)Cc1ccc(Oc2ccc(OC[C@@H](O)C[C@@H](O)CC(=O)O)cc2)cc1`, the IC50 was 0.3 µM against Glucocorticoid receptor [2], greater than 30 µM at Glucocorticoid receptor [1] and 0.0021 µM at Glucocorticoid receptor [3].

As for `Cc1c(NS(C)(=O)=O)cccc1N(Cc1ccc(Oc2cccc(OC[C@@H](O)C[C@@H](O)CC(=O)O)c2)cc1)Cc1ccc(F)cc1F`, the IC50 at Glucocorticoid receptor [2] was 0.76 µM; against Glucocorticoid receptor [1], greater than 30 µM; against Glucocorticoid receptor [3] it was 0.015 µM.

With `Cc1c(NS(C)(=O)=O)cccc1N(Cc1ccc(Oc2cccc(OC[C@@H]3C[C@@H](O)CC(=O)O3)c2)cc1)Cc1ccc(F)cc1F`, the IC50 was 0.67 µM against Glucocorticoid receptor [2], greater than 30 µM against Glucocorticoid receptor [1] and 0.025 µM at Glucocorticoid receptor [3].

Turning to `CC#C[C@]1(O)CC[C@H]2[C@@H]3CCC4=CC(=O)CCC4=C3[C@@H](c3ccc(N(C)C[C@@H](O)C[C@@H](O)CC(=O)O)cc3)C[C@@]21C`, the IC50 on Glucocorticoid receptor [2] worked out at 0.018 µM; against Glucocorticoid receptor [1], 0.13 µM; at Progesterone receptor, 0.032 µM; on Glucocorticoid receptor [3], 0.0068 µM.

As to `CC#C[C@]1(O)CC[C@H]2[C@@H]3CCC4=CC(=O)CCC4=C3[C@@H](c3ccc(N(C)C[C@@H]4C[C@@H](O)CC(=O)O4)cc3)C[C@@]21C`, the half-maximal inhibitory concentration (IC50) was found to be 0.023 µM against Glucocorticoid receptor [2], 0.14 µM on Glucocorticoid receptor [1], 0.0038 µM against Progesterone receptor and 0.0023 µM against Glucocorticoid receptor [3].

`Cc1c(NS(C)(=O)=O)cccc1N(Cc1ccccc1)Cc1ccc(Oc2ccc(OC[C@@H]3C[C@@H](O)CC(=O)O3)cc2)cc1`: the half-inhibitory concentration (IC50) at Glucocorticoid receptor [2] was 0.44 µM; against Glucocorticoid receptor [1], greater than 30 µM; on Glucocorticoid receptor [3] it was 0.0021 µM.

For the compound `CC#C[C@]1(O)CC[C@H]2[C@@H]3CCC4=CC(=O)CCC4=C3[C@@H](c3ccc(N(C)C[C@@H](O)CC(=O)O)cc3)C[C@@]21C`, the 50% inhibitory concentration (IC50) was found to be 0.076 µM against Glucocorticoid receptor [2], 0.22 µM on Glucocorticoid receptor [1], 0.2 µM against Progesterone receptor and 0.037 µM at Glucocorticoid receptor [3].

Consider `CC#C[C@]1(O)CC[C@H]2[C@@H]3CCC4=CC(=O)CCC4=C3[C@@H](c3ccc(OC[C@@H](O)CC(O)CC(=O)O)cc3)C[C@@]21C` (single isomer, unassigned), for which the concentration for half-maximal inhibition (IC50) is 2.9 µM at Glucocorticoid receptor [2], 0.56 µM at Glucocorticoid receptor [1], 0.047 µM against Progesterone receptor and 0.0092 µM on Glucocorticoid receptor [3].
